Here are results for 16 molecules from PubChem BioAssay (NCI).

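Method: 48-hour compound exposure of cells in 96-well plates, five concentrations, linear interpolation of endpoints. TGI marks complete inhibition of growth.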 Bounds are passed on as bounds.

Among the test systems are HCT-15 colon; CAKI-1 renal; SW-620 colon; UO-31 renal; OVCAR-4 ovarian; SF-268 CNS; K-562 leukemia; SF-539 CNS; OVCAR-3 ovarian.
Assay in all cases: inhibition of tumour cell growth, NCI panel, 48 h

Consider `C/C=C/C=C/[C@H]1Cc2cc(O)cc(O)c2O1`, for which the TGI in the test with HCT-15 colon, in the test on CAKI-1 renal, with SW-620 colon, in the test with UO-31 renal, with OVCAR-4 ovarian and in the test with SF-268 CNS was over 100 µM each time. Also, the TGI in the test with K-562 leukemia, in the test on SF-539 CNS and in the test with OVCAR-3 ovarian was over 100 µM in each case.

As to `CSc1s[s+]c(SC)c1[O-]`, the TGI in the test with HCT-15 colon was over 100 µM; with CAKI-1 renal, 53.6 µM; in the test with SW-620 colon it was 31.7 µM; in the test with UO-31 renal it was over 100 µM; with OVCAR-4 ovarian, over 100 µM; in the test on SF-268 CNS, 55.8 µM. Also, the TGI in the test with K-562 leukemia was determined as 25.2 µM; in the test on SF-539 CNS, 43.2 µM; in the test on OVCAR-3 ovarian, 67.2 µM.

Take `O=C(O)C1Cc2nc[nH]c2CN1` (stereo unspecified): the TGI in the test with HCT-15 colon, with CAKI-1 renal, in the test with SW-620 colon, with UO-31 renal, in the test with OVCAR-4 ovarian and in the test with SF-268 CNS was over 100 µM in each case. Further, the TGI in the test with K-562 leukemia, in the test with SF-539 CNS and in the test on OVCAR-3 ovarian was over 100 µM each time.

Turning to `C=C(CO)CC(O)c1ccccc1` (stereo unspecified), the TGI in the test on HCT-15 colon, with SW-620 colon, in the test with UO-31 renal, in the test on OVCAR-4 ovarian, in the test with SF-268 CNS and in the test on K-562 leukemia was over 100 µM each time. Further, the TGI in the test with SF-539 CNS and in the test with OVCAR-3 ovarian was over 100 µM throughout.

With `O=C1OC(=O)C2C3CCC(O3)C12` (stereo unspecified), the TGI in the test on CAKI-1 renal, with SW-620 colon, in the test on UO-31 renal, with SF-268 CNS, in the test with K-562 leukemia and in the test on SF-539 CNS was over 100 µM in each case. Besides, the TGI in the test with OVCAR-3 ovarian was over 100 µM.

Turning to `Cc1ccccc1NC(=O)C(=O)Cc1nc2ccccc2s1`, the TGI with HCT-15 colon, with CAKI-1 renal, in the test on SW-620 colon, with UO-31 renal, with OVCAR-4 ovarian and in the test with SF-268 CNS was over 100 µM throughout. Further, the TGI in the test on K-562 leukemia, in the test on SF-539 CNS and with OVCAR-3 ovarian was over 100 µM in each case.

In the case of `Cc1cccc(NC(=O)CC2C(=O)Nc3ccccc3S2(=O)=O)c1C` (stereo unspecified), the TGI in the test on HCT-15 colon was over 100 µM; in the test on CAKI-1 renal, over 100 µM; in the test on SW-620 colon, 84.2 µM; in the test with UO-31 renal, 50.5 µM; with OVCAR-4 ovarian it was 32.1 µM; in the test with SF-268 CNS it was over 100 µM. In addition, the TGI is over 100 µM in the test with K-562 leukemia, 37.6 µM in the test with SF-539 CNS and 61.2 µM in the test on OVCAR-3 ovarian.

As for `Oc1cccc(C2SCc3nc4ccccc4n32)c1` (stereo unspecified), the TGI in the test on CAKI-1 renal, in the test with SW-620 colon, in the test with UO-31 renal, with SF-268 CNS, in the test on K-562 leukemia and in the test on SF-539 CNS was over 100 µM in each case. In the test with OVCAR-3 ovarian, this molecule showed a TGI of over 100 µM.

In the case of `O=C1C=C(Br)C(=O)C(Br)=C1`, the TGI in the test with HCT-15 colon, with CAKI-1 renal, in the test with SW-620 colon, with UO-31 renal, with OVCAR-4 ovarian and in the test on SF-268 CNS was over 100 µM each time. The TGI in the test on K-562 leukemia, in the test with SF-539 CNS and in the test with OVCAR-3 ovarian was over 100 µM throughout.

`Cc1ccc(C(=O)/C=C/c2ccccc2Cl)cc1`: the TGI in the test with HCT-15 colon was 29.1 µM; in the test with CAKI-1 renal, 34.6 µM; with SW-620 colon, 27 µM; in the test on UO-31 renal it was 32.8 µM; in the test on OVCAR-4 ovarian, 34.6 µM; in the test on SF-268 CNS, 48 µM. For the same molecule, the values for the TGI with K-562 leukemia, in the test on SF-539 CNS and with OVCAR-3 ovarian were 46 µM, 38.9 µM and 31 µM, respectively.

Regarding `CNC(=O)OCc1nc(S(C)=O)n(C)c1COC(=O)NC` (stereo unspecified), the TGI in the test on HCT-15 colon was over 100 µM; in the test with CAKI-1 renal, over 93.8 µM; in the test on SW-620 colon, over 46.4 µM; with UO-31 renal, over 100 µM; in the test with OVCAR-4 ovarian it was over 71.6 µM; with SF-268 CNS, over 100 µM. The TGI with K-562 leukemia, with SF-539 CNS and with OVCAR-3 ovarian was over 100 µM throughout.

Regarding `C=C(C)C1CC[C@]2(C(=O)O)CCC3(C)[C@H](CCC4[C@@]5(C)CC[C@H](OC6OC(CO)C(O)C6OC6OC(C)C(O)C(O)C6O)[C@@](C)(CO)C5CC[C@]43C)C12` (stereo partly specified), the TGI with HCT-15 colon, with SW-620 colon, with UO-31 renal, with OVCAR-4 ovarian, with SF-268 CNS and in the test with K-562 leukemia was over 100 µM in each case. The TGI in the test on SF-539 CNS and in the test on OVCAR-3 ovarian was over 100 µM throughout.

Turning to `CC(C)OCN1COCN=C1NC#N`, the TGI in the test on HCT-15 colon was 34.2 µM; in the test with CAKI-1 renal, over 100 µM; with SW-620 colon, 34.8 µM; with UO-31 renal, over 100 µM; in the test on OVCAR-4 ovarian, over 100 µM; in the test with SF-268 CNS it was over 100 µM. The TGI in the test on K-562 leukemia, with SF-539 CNS and in the test on OVCAR-3 ovarian was over 100 µM in each case.

For `O=C(O)/C(O)=C1/C=C(c2ccccc2)c2ccccc21`, the TGI worked out at 50.6 µM in the test with HCT-15 colon; 63.6 µM with CAKI-1 renal; 37.7 µM in the test with SW-620 colon; 41.6 µM with UO-31 renal; 80.7 µM with OVCAR-4 ovarian; 51.7 µM with SF-268 CNS. In addition, the TGI was found to be 73.5 µM in the test with K-562 leukemia and 82.3 µM with SF-539 CNS.

Regarding `N/C(=N\C(=S)N1CCCCC1)N1CCCCC1`, the TGI in the test with HCT-15 colon, with CAKI-1 renal, with SW-620 colon, in the test on UO-31 renal, in the test with OVCAR-4 ovarian and in the test on SF-268 CNS was over 100 µM each time. Further, the TGI with K-562 leukemia and with SF-539 CNS was over 100 µM throughout.

For `Cc1ccc(NC(=O)SCCC(=O)O)cc1NC(=O)SCCC(=O)O`, the TGI in the test with HCT-15 colon, with CAKI-1 renal, with SW-620 colon, in the test with UO-31 renal, in the test on OVCAR-4 ovarian and in the test on SF-268 CNS was over 100 µM each time. For the same molecule, the TGI with K-562 leukemia, in the test on SF-539 CNS and in the test on OVCAR-3 ovarian was over 100 µM throughout.
